Laboratory results taken from US7118895B2, “Process for producing aglycon by using diglycosidase and flavor-improved food containing the aglycon and converting agent to be used in the process” (Amano Enzyme Inc., priority 2000, dated 2006).
Blank lines part the entries; values can stand above or below the compound they belong to.

Tested on: Crude diglycosidase
Assay: Examination of substrate concentration in the conversion into isoflavone aglycons by diglycosidase using soybean materials;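 note: percent of the isoflavone family total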
Type: biochemical, Penicillium multicolor IAM7153
Procedure: Into 20 mM acetate buffer of pH 4.0 was suspended 0.1 g, 0.25 g, 0.5 g, 1.0 g, or 1.5 g of each of various soybean materials (roasted soy flour (manufactured by Fuji Shokuryo K.K.), soymilk (manufactured by Gitoh Shokuhin K.K.), defatted soybean (manufactured by Fuji Seiyu K.K.), concentrated soybean protein (manufactured by Fuji Seiyu K.K.)). The pH of the suspension was measured and the liquid volume was adjusted to 4.5 mL while the pH was adjusted to 4.0 with 1N hydrochloric acid. An enzyme solution wherein diglycosidase activity of crude diglycosidase was adjusted to 1.88 AU/mL was added thereto in an amount of 0.5 mL, whereby the final liquid volume was 5.0 mL. Namely, the ratio of the soybean material in the reaction mixture was 2%, 5%, 10%, 20%, or 30% (w/v). The whole was reacted at 55° C. under shaking. To 5 mL of the reaction mixture was added 7 mL of ethanol after 0, 1, 3, and 6 hours of the reaction. After ultrasonication, the mixture was thoroughly mixed. It was subjected to centrifugal separation at 2,000 rpm and room temperature for 5 minutes. Then, […] of the supernatant was placed in a 1.5 mL microtube and was subjected to centrifugal separation at 15,000 rpm and 4° C. for 10 minutes. The supernatant was filtered through a filter and each sample was suitably diluted by a factor of 1 to 6 depending on the substrate concentration. Fifty μL of the diluted solution was analyzed by HLPC (Tables 27 to 38).

[1] = soymilk, substrate concentration 2%, heat treatment of enzyme no, reaction time 0 h
[2] = soymilk, substrate concentration 2%, heat treatment of enzyme no, reaction time 1 h
[3] = soymilk, substrate concentration 2%, heat treatment of enzyme no, reaction time 3 h
[4] = soymilk, substrate concentration 2%, heat treatment of enzyme no, reaction time 6 h
[5] = soymilk, substrate concentration 2%, heat treatment of enzyme yes, reaction time 6 h
[6] = soymilk, substrate concentration 5%, heat treatment of enzyme no, reaction time 0 h
[7] = soymilk, substrate concentration 5%, heat treatment of enzyme no, reaction time 1 h
[8] = soymilk, substrate concentration 5%, heat treatment of enzyme no, reaction time 3 h
[9] = soymilk, substrate concentration 5%, heat treatment of enzyme no, reaction time 6 h
[10] = soymilk, substrate concentration 5%, heat treatment of enzyme yes, reaction time 6 h
[11] = soymilk, substrate concentration 10%, heat treatment of enzyme no, reaction time 0 h
[12] = soymilk, substrate concentration 10%, heat treatment of enzyme no, reaction time 1 h
[13] = soymilk, substrate concentration 10%, heat treatment of enzyme no, reaction time 3 h
[14] = soymilk, substrate concentration 10%, heat treatment of enzyme no, reaction time 6 h
[15] = soymilk, substrate concentration 10%, heat treatment of enzyme yes, reaction time 6 h
[16] = soymilk, substrate concentration 20%, heat treatment of enzyme no, reaction time 0 h
[17] = soymilk, substrate concentration 20%, heat treatment of enzyme no, reaction time 1 h
[18] = soymilk, substrate concentration 20%, heat treatment of enzyme no, reaction time 3 h
[19] = soymilk, substrate concentration 20%, heat treatment of enzyme no, reaction time 6 h
[20] = soymilk, substrate concentration 20%, heat treatment of enzyme yes, reaction time 6 h
[21] = soymilk, substrate concentration 30%, heat treatment of enzyme no, reaction time 0 h
[22] = soymilk, substrate concentration 30%, heat treatment of enzyme no, reaction time 1 h
[23] = soymilk, substrate concentration 30%, heat treatment of enzyme no, reaction time 3 h
[24] = soymilk, substrate concentration 30%, heat treatment of enzyme no, reaction time 6 h
[25] = soymilk, substrate concentration 30%, heat treatment of enzyme yes, reaction time 6 h

Compound: CC(=O)OC[C@H]1O[C@@H](Oc2ccc3c(=O)c(-c4ccc(O)cc4)coc3c2)[C@H](O)[C@@H](O)[C@@H]1O [acetly-daidzin]
Decomposition efficiency: ratio of each glycoside/aglycon within its isoflavone family (concentrated soybean protein, substrate concentration 2%, heat treatment of enzyme no, reaction time 0 h): 44.0%
Decomposition efficiency: ratio of each glycoside/aglycon within its isoflavone family (concentrated soybean protein, substrate concentration 2%, heat treatment of enzyme no, reaction time 1 h): 17.8%
Decomposition efficiency: ratio of each glycoside/aglycon within its isoflavone family (concentrated soybean protein, substrate concentration 2%, heat treatment of enzyme no, reaction time 3 h): 5.3%
Decomposition efficiency: ratio of each glycoside/aglycon within its isoflavone family (concentrated soybean protein, substrate concentration 2%, heat treatment of enzyme no, reaction time 6 h): not detected
Decomposition efficiency: ratio of each glycoside/aglycon within its isoflavone family (concentrated soybean protein, substrate concentration 2%, heat treatment of enzyme yes, reaction time 6 h): 43.2%
Decomposition efficiency: ratio of each glycoside/aglycon within its isoflavone family (concentrated soybean protein, substrate concentration 5%, heat treatment of enzyme no, reaction time 0 h): 44.0%
Decomposition efficiency: ratio of each glycoside/aglycon within its isoflavone family (concentrated soybean protein, substrate concentration 5%, heat treatment of enzyme no, reaction time 3 h): 20.5%
Decomposition efficiency: ratio of each glycoside/aglycon within its isoflavone family (concentrated soybean protein, substrate concentration 5%, heat treatment of enzyme no, reaction time 6 h): 12.0%
Decomposition efficiency: ratio of each glycoside/aglycon within its isoflavone family (concentrated soybean protein, substrate concentration 5%, heat treatment of enzyme yes, reaction time 6 h): 43.0%
Decomposition efficiency: ratio of each glycoside/aglycon within its isoflavone family (concentrated soybean protein, substrate concentration 10%, heat treatment of enzyme no, reaction time 0 h): 44.2%
Decomposition efficiency: ratio of each glycoside/aglycon within its isoflavone family (concentrated soybean protein, substrate concentration 10%, heat treatment of enzyme no, reaction time 1 h): 39.7%
Decomposition efficiency: ratio of each glycoside/aglycon within its isoflavone family (concentrated soybean protein, substrate concentration 10%, heat treatment of enzyme no, reaction time 3 h): 32.9%
Decomposition efficiency: ratio of each glycoside/aglycon within its isoflavone family (concentrated soybean protein, substrate concentration 10%, heat treatment of enzyme no, reaction time 6 h): 26.9%
Decomposition efficiency: ratio of each glycoside/aglycon within its isoflavone family (concentrated soybean protein, substrate concentration 10%, heat treatment of enzyme yes, reaction time 6 h): 43.4%
Decomposition efficiency: ratio of each glycoside/aglycon within its isoflavone family (concentrated soybean protein, substrate concentration 20%, heat treatment of enzyme no, reaction time 0 h): 44.1%
Decomposition efficiency: ratio of each glycoside/aglycon within its isoflavone family (concentrated soybean protein, substrate concentration 20%, heat treatment of enzyme no, reaction time 3 h): 41.5%
Decomposition efficiency: ratio of each glycoside/aglycon within its isoflavone family (concentrated soybean protein, substrate concentration 20%, heat treatment of enzyme no, reaction time 6 h): 37.9%
Decomposition efficiency: ratio of each glycoside/aglycon within its isoflavone family (concentrated soybean protein, substrate concentration 20%, heat treatment of enzyme yes, reaction time 6 h): 44.0%
Decomposition efficiency: ratio of each glycoside/aglycon within its isoflavone family (concentrated soybean protein, substrate concentration 30%, heat treatment of enzyme no, reaction time 0 h): 49.2%
Decomposition efficiency: ratio of each glycoside/aglycon within its isoflavone family (concentrated soybean protein, substrate concentration 30%, heat treatment of enzyme no, reaction time 1 h): 56.6%
Decomposition efficiency: ratio of each glycoside/aglycon within its isoflavone family (concentrated soybean protein, substrate concentration 30%, heat treatment of enzyme no, reaction time 3 h): 49.9%
Decomposition efficiency: ratio of each glycoside/aglycon within its isoflavone family (concentrated soybean protein, substrate concentration 30%, heat treatment of enzyme no, reaction time 6 h): 42.8%
Decomposition efficiency: ratio of each glycoside/aglycon within its isoflavone family (concentrated soybean protein, substrate concentration 30%, heat treatment of enzyme yes, reaction time 6 h): 48.4%

Compound: CC(=O)OC[C@H]1O[C@@H](Oc2ccc3c(=O)c(-c4ccc(O)cc4)coc3c2)[C@H](O)[C@@H](O)[C@@H]1O [acetyl-daidzin]
Decomposition efficiency: ratio of each glycoside/aglycon within its isoflavone family [1]: not detected
Decomposition efficiency: ratio of each glycoside/aglycon within its isoflavone family [2]: not detected
Decomposition efficiency: ratio of each glycoside/aglycon within its isoflavone family [3]: not detected
Decomposition efficiency: ratio of each glycoside/aglycon within its isoflavone family [4]: not detected
Decomposition efficiency: ratio of each glycoside/aglycon within its isoflavone family [5]: not detected
Decomposition efficiency: ratio of each glycoside/aglycon within its isoflavone family [6]: not detected
Decomposition efficiency: ratio of each glycoside/aglycon within its isoflavone family [7]: not detected
Decomposition efficiency: ratio of each glycoside/aglycon within its isoflavone family [8]: not detected
Decomposition efficiency: ratio of each glycoside/aglycon within its isoflavone family [9]: not detected
Decomposition efficiency: ratio of each glycoside/aglycon within its isoflavone family [10]: not detected
Decomposition efficiency: ratio of each glycoside/aglycon within its isoflavone family [11]: not detected
Decomposition efficiency: ratio of each glycoside/aglycon within its isoflavone family [12]: not detected
Decomposition efficiency: ratio of each glycoside/aglycon within its isoflavone family [13]: not detected
Decomposition efficiency: ratio of each glycoside/aglycon within its isoflavone family [14]: not detected
Decomposition efficiency: ratio of each glycoside/aglycon within its isoflavone family [15]: not detected
Decomposition efficiency: ratio of each glycoside/aglycon within its isoflavone family [16]: not detected
Decomposition efficiency: ratio of each glycoside/aglycon within its isoflavone family [17]: not detected
Decomposition efficiency: ratio of each glycoside/aglycon within its isoflavone family [18]: not detected
Decomposition efficiency: ratio of each glycoside/aglycon within its isoflavone family [19]: not detected
Decomposition efficiency: ratio of each glycoside/aglycon within its isoflavone family [20]: not detected
Decomposition efficiency: ratio of each glycoside/aglycon within its isoflavone family [21]: not detected
Decomposition efficiency: ratio of each glycoside/aglycon within its isoflavone family [22]: not detected
Decomposition efficiency: ratio of each glycoside/aglycon within its isoflavone family [23]: not detected
Decomposition efficiency: ratio of each glycoside/aglycon within its isoflavone family [24]: not detected
Decomposition efficiency: ratio of each glycoside/aglycon within its isoflavone family [25]: not detected

Decomposition efficiency: ratio of each glycoside/aglycon within its isoflavone family [1]: not detected
Decomposition efficiency: ratio of each glycoside/aglycon within its isoflavone family [2]: not detected
Decomposition efficiency: ratio of each glycoside/aglycon within its isoflavone family [3]: not detected
Decomposition efficiency: ratio of each glycoside/aglycon within its isoflavone family [4]: not detected
Decomposition efficiency: ratio of each glycoside/aglycon within its isoflavone family [5]: not detected
Decomposition efficiency: ratio of each glycoside/aglycon within its isoflavone family [6]: not detected
Decomposition efficiency: ratio of each glycoside/aglycon within its isoflavone family [7]: not detected
Decomposition efficiency: ratio of each glycoside/aglycon within its isoflavone family [8]: not detected
Decomposition efficiency: ratio of each glycoside/aglycon within its isoflavone family [9]: not detected
Decomposition efficiency: ratio of each glycoside/aglycon within its isoflavone family [10]: not detected
Decomposition efficiency: ratio of each glycoside/aglycon within its isoflavone family [11]: 0.5%
Decomposition efficiency: ratio of each glycoside/aglycon within its isoflavone family [12]: not detected
Decomposition efficiency: ratio of each glycoside/aglycon within its isoflavone family [13]: not detected
Decomposition efficiency: ratio of each glycoside/aglycon within its isoflavone family [14]: not detected
Decomposition efficiency: ratio of each glycoside/aglycon within its isoflavone family [15]: 0.5%
Decomposition efficiency: ratio of each glycoside/aglycon within its isoflavone family [16]: 0.6%
Decomposition efficiency: ratio of each glycoside/aglycon within its isoflavone family [17]: not detected
Decomposition efficiency: ratio of each glycoside/aglycon within its isoflavone family [18]: not detected
Decomposition efficiency: ratio of each glycoside/aglycon within its isoflavone family [19]: not detected
Decomposition efficiency: ratio of each glycoside/aglycon within its isoflavone family [20]: 0.6%
Decomposition efficiency: ratio of each glycoside/aglycon within its isoflavone family [21]: 0.6%
Decomposition efficiency: ratio of each glycoside/aglycon within its isoflavone family [22]: not detected
Decomposition efficiency: ratio of each glycoside/aglycon within its isoflavone family [23]: not detected
Decomposition efficiency: ratio of each glycoside/aglycon within its isoflavone family [24]: not detected
Decomposition efficiency: ratio of each glycoside/aglycon within its isoflavone family [25]: 0.6%
Compound: CC(=O)OC[C@H]1O[C@@H](Oc2cc(O)c3c(=O)c(-c4ccc(O)cc4)coc3c2)[C@H](O)[C@@H](O)[C@@H]1O [acetyl-genistin]
